{
  "source": "patent US7943631B2",
  "about": "“Method of treating drug addiction using dextro-morphine” (MCW Research Foundation, Inc., priority 2007, dated 2011)",
  "key": {"mice": {"test_system": "mice", "assay": "Tail-flick response after intrathecal injection, mouse spinal cord", "conditions": "for (−)-morphine-produced tail-flick inhibition after pretreatment given alone (did not affect): 10 μg intrathecal alone, 45 min before (−)-morphine 1 μg, measured 15 min after; for reversal of the (+)-morphine-induced attenuation of (−)-morphine-produced tail-flick inhibition: intrathecal with (+)-morphine 10 pg, BD1047 1-10 μg, (+)-pentazocine 0.1-10 μg, in a dose-dependent manner"}, "[1]": {"conditions": "cited from earlier work; for block or reversal of the (+)-morphine-induced attenuation of systemic (−)-morphine-produced antinociception: pretreatment"}, "rats [2]": {"test_system": "rats", "assay": "Conditioned place preference (CPP), drugs given systemically", "assay_type": "in vivo, rat", "conditions": "for effect given alone on baseline place conditioning (CPP or conditioned place aversion): 3 μg/kg i.p. alone, rats treated s.c. with saline vehicle"}, "[3]": {"test_system": "extracellular dopamine in the Acb shell", "assay": "Microdialysis of extracellular dopamine in the Acb shell after microinjection into the VTA, urethane-anesthetized rats", "assay_type": "in vivo, rat", "procedure": "Groups of rats were microinjected with endomorphin-1 (1, 3 or 10 μg) or vehicle into the VTA (A). In other groups of rats, (−)-naloxone (4 or 40 ng) or vehicle was co-microinjected into the VTA with endomorphin-1 (10 μg). The perfusates from the microdialysis probe at the nucleus accumbens shell were collected every 15 min from 30 min before microinjection and continuously collected for another 120 min (A) or 105 min (B) after microinjection. The perfusates were then analyzed their dopamine level. […] (B) For the group of rats injected with different dose of (−)-naloxone+endomorphin-1 versus vehicle+endomorphin-1, Finteraction (18, 150)=3.338, Ftreatment (2, 150)=7.671, Ftime (9, 150)=11.17, *P<0.01; only the data of the dopamine level after the 0 min time point were used for the statistic analysis; the group of rats microinjected with vehicle alone in (B) was not included in the statistic analysis.\n. The perfusates were then analyzed their dopamine level. […]; only the data of the dopamine level after the 0 min time point were used for statistic analysis; the vehicle pretreatment followed by vehicle microinjected group was not included in the statistic analysis.\nGroups of rats were microinjected with a various dose of endomorphin-1 (1, 3 and 10 μg) or vehicle given into the VTA and the release of dopamine from the Acb shell were studied. […] The dopamine level returned to baseline 60 min thereafter (FIG. 8A). To determine if the increased release of dopamine induced by endomorphin-1 is mediated by the stimulation of μ-opioid receptors, the effect of (−)-naloxone on the increased release of dopamine induced by endomorphin-1 was then studied."}, "rats [4]": {"test_system": "rats", "assay": "Conditioned place preference, (−)-morphine and (+)-morphine microinjected into the Acb shell", "assay_type": "in vivo, rat"}, "[5]": {"conditions": "cited from earlier work; for production of conditioned place preference or aversion: 4 mg/kg s.c., given systemically, Mucha and Herz 1986; for block of the CPP produced by (−)-morphine: Olmstead and Burns 2005"}, "rats [6]": {"test_system": "rats"}},
  "note": "Where two headings read alike, the source gives them in different places.",
  "data": [
    {"molecule": "CC(C)=CCN1CCC2(C)c3cc(O)ccc3CC1C2C", "note": "(single isomer, unassigned; (+)) [(+)-pentazocine]", "values": [
      {"measurement": "(−)-morphine-produced tail-flick inhibition after pretreatment given alone (did not affect)", "setting": "mice", "result": "8.89 ± 0.53", "unit": "s"},
      {"measurement": "reversal of the (+)-morphine-induced attenuation of (−)-morphine-produced tail-flick inhibition", "setting": "mice", "result": "reversed"},
      {"measurement": "effect against morphine, both given spinally", "setting": "[1]; 13 μg against morphine 700 ng, mice, Mei and Pasternak 2002", "result": "without effect against morphine"},
      {"measurement": "effect on (−)-morphine-produced analgesia, systemic administration", "setting": "[1]; 5 or 10 mg/kg, Chien and Pasternak 1994", "result": "antagonizes (−)-morphine-produced analgesia"}
    ]},
    {"molecule": "CN1CC[C@]23c4c5ccc(O)c4O[C@H]2[C@@H](O)C=C[C@H]3[C@H]1C5", "note": "[(+)-morphine]", "values": [
      {"measurement": "effect given alone on baseline place conditioning (CPP or conditioned place aversion)", "setting": "rats [2]", "result": "did not affect the baseline place conditioning"},
      {"measurement": "effect given alone on baseline place conditioning (CPP or conditioned place aversion)", "setting": "rats [2]; listed as dextro-morphine", "result": "did not produce CPP nor conditioned place aversion"},
      {"measurement": "attenuation of (−)-morphine-produced CPP at higher dose", "setting": "rats [2]; i.p. pretreatment 100 μg/kg, 1 h before (−)-morphine sulfate 5 mg/kg s.c.", "result": "did not attenuate the (−)-morphine-produced CPP"},
      {"measurement": "attenuation of (−)-morphine-produced CPP", "setting": "rats [2]; i.p. pretreatment 0.1 to 3 μg/kg, 1 h before (−)-morphine sulfate 5 mg/kg s.c.", "result": "dose-dependently attenuated the (−)-morphine-produced CPP"},
      {"measurement": "dose of maximal inhibition of the morphine-produced CPP (U-shaped dose-response curve)", "setting": "rats [2]; i.p., dose range 0.1 to 100 μg/kg", "result": 3, "unit": "µg/kg"},
      {"measurement": "block of the endomorphin-1-induced increase of extracellular dopamine", "setting": "[3]; 3 pg into the VTA, 45 min before endomorphin-1 10 μg", "result": "completely blocked the increase of the extracellular dopamine in the Acb shell"},
      {"measurement": "effect on basal levels of extracellular dopamine", "setting": "[3]; microinjection into the VTA", "result": "did not affect the basal levels of extracellular dopamine in the Acb shell"},
      {"measurement": "effect on (−)-morphine-produced tail-flick inhibition", "setting": "mice; 10 pg intrathecal, 45 min before (−)-morphine 1 μg intrathecal", "result": "attenuated the (−)-morphine-produced tail-flick inhibition"},
      {"measurement": "attenuation of (−)-morphine-produced conditioned place preference", "setting": "rats [4]; 0.1 to 10 pg into the Acb shell, 45 min before (−)-morphine 5 μg, same site", "result": "dose-dependently attenuated the (−)-morphine-produced conditioned place preference"},
      {"measurement": "production of conditioned place preference given alone", "setting": "rats [4]; 3 to 100 pg into the Acb shell, alone", "result": "did not produce any conditioned place preference"},
      {"measurement": "attenuation of (−)-morphine-produced conditioned place preference at higher doses", "setting": "rats [4]; 30, 100 and 1000 pg into the Acb shell, 45 min before (−)-morphine 5 μg", "result": "did not attenuate the (+)-morphine-produced conditioned place preference"},
      {"measurement": "dose of maximal inhibition (U-shape dose-response curve)", "setting": "rats [4]; into the Acb shell, dose range 0.1 to 1000 pg", "result": 3, "unit": "pg"},
      {"measurement": "attenuation of antinociception produced by (−)-morphine given systemically", "setting": "[1]; pretreated systemically, Wu et al., 2007", "result": "attenuates the antinociception produced by (−)-morphine given systemically"},
      {"measurement": "production of conditioned place preference or aversion", "setting": "[5]", "result": "does not produce any conditioned place preference nor does it produce any conditioned place aversion"},
      {"measurement": "block of the nicotine-produced increase of conditioned place preference at single dose", "setting": "rats [6]; 0.3 pg into the Acb, nicotine 20 μg", "result": "completely block the nicotine-produced increase of the conditioned place preference"},
      {"measurement": "block of the nicotine-produced increase of conditioned place preference", "setting": "rats [6]; pretreatment 0.03 to 3 pg into the Acb, nicotine 20 μg", "result": "blocked dose-dependently"}
    ]},
    {"molecule": "C=CCN1CC[C@]23c4c5ccc(O)c4O[C@H]2C(=O)CC[C@]3(O)[C@H]1C5", "note": "[(+)-naloxone]", "values": [
      {"measurement": "block or reversal of the (+)-morphine-induced attenuation of systemic (−)-morphine-produced antinociception", "setting": "[1]; Wu et al., 2007", "result": "blocked or reversed"}
    ]},
    {"molecule": "CN1CC[C@]23c4c5ccc(O)c4O[C@H]2[C@@H](O)C=C[C@H]3[C@H]1C5.O=S(=O)(O)O", "note": "[(−)-morphine sulfate, (−)-Morphine sulfate]", "values": [
      {"measurement": "production of CPP at higher dose", "setting": "rats [2]; rats, s.c., 10 mg/kg", "result": "produced no more increase of the CPP"},
      {"measurement": "production of CPP", "setting": "rats [2]; rats, s.c., 1 and 5 mg/kg", "result": "dose-dependently produced CPP"},
      {"measurement": "production of conditioned place preference at higher dose", "setting": "rats [4]; 10 μg into the Acb shell", "result": "produced no further increase of conditioned place preference"},
      {"measurement": "production of conditioned place preference", "setting": "rats [4]; 2.5 or 5 μg into the Acb shell", "result": "dose-dependently produced conditioned place preference"},
      {"measurement": "production of conditioned place preference or aversion", "setting": "[5]", "result": "produces marked conditioned place preference"}
    ]},
    {"molecule": "Br.Br.CN(C)CCN(C)CCc1ccc(Cl)c(Cl)c1", "note": "[BD1047, N-[2-(3,4-Dichlorophenyl)ethyl]-N-methyl-2-(dimethylamino)ethylamine dihydrobromide]", "values": [
      {"measurement": "effect given alone on the morphine-produced CPP", "setting": "rats [2]; 3 mg/kg i.p. alone, morphine sulfate 5 mg/kg s.c.", "result": "did not affect the morphine-produced CPP"},
      {"measurement": "effect given alone on baseline place preference", "setting": "rats [2]; 3 mg/kg i.p. alone, rats treated with saline vehicle", "result": "nor did it affect the baseline place preference"},
      {"measurement": "reversal of the attenuation of (−)-morphine-produced CPP induced by (+)-morphine", "setting": "rats [2]; 1, 3 or 6 mg/kg i.p. with (+)-morphine 3 μg/kg, 1 h before morphine sulfate 5 mg/kg s.c.", "result": "dose-dependently reversed the attenuation of the morphine-produced CPP"},
      {"measurement": "(−)-morphine-produced tail-flick inhibition after pretreatment given alone (did not affect)", "setting": "mice", "result": "9.19 ± 0.42", "unit": "s"},
      {"measurement": "reversal of the (+)-morphine-induced attenuation of (−)-morphine-produced tail-flick inhibition", "setting": "mice", "result": "reversed"},
      {"measurement": "block or reversal of the (+)-morphine-induced attenuation of systemic (−)-morphine-produced antinociception", "setting": "[1]; Wu et al., 2007", "result": "blocked or reversed"}
    ]},
    {"molecule": "C=CCN1CC[C@]23c4c5ccc(O)c4O[C@H]2/C(=N/N=C2\\CC[C@@]4(O)[C@H]6Cc7ccc(O)c8c7[C@@]4(CCN6CC=C)[C@H]2O8)CC[C@@]3(O)[C@H]1C5", "note": "[naloxonazine]", "values": [
      {"measurement": "block of the CPP produced by (−)-morphine", "setting": "[5]", "result": "blocked"}
    ]},
    {"molecule": "O=C1CC[C@@]2(O)[C@H]3Cc4ccc(O)c5c4[C@@]2(CCN3CC2CC2)[C@H]1O5", "note": "[naltrexone]", "values": [
      {"measurement": "block of the CPP produced by (−)-morphine", "setting": "[5]", "result": "blocked"}
    ]},
    {"molecule": "CN1CCCC1c1cccnc1", "note": "(stereo not shown) [nicotine]", "values": [
      {"measurement": "production of conditioned place preference at higher dose", "setting": "rats [6]; 40 μg microinjected into the Acb", "result": "produced less increase of the conditioned place preference than that of 20 μg of nicotine"},
      {"measurement": "production of conditioned place preference", "setting": "rats [6]; 5 to 20 μg microinjected into the Acb", "result": "dose-dependently increased the conditioned place preference"}
    ]},
    {"molecule": "(−)-naloxone", "values": [
      {"measurement": "attenuation of the endomorphin-1-induced increase of extracellular dopamine", "setting": "[3]; 40 ng co-administered into the VTA with endomorphin-1 10 μg", "result": "attenuated the increase of the extracellular dopamine in the Acb shell"},
      {"measurement": "block or reversal of the (+)-morphine-induced attenuation of systemic (−)-morphine-produced antinociception", "setting": "[1]; Wu et al., 2007", "result": "blocked or reversed"}
    ]},
    {"molecule": "Endomorphin-1", "values": [
      {"measurement": "extracellular dopamine in the Acb shell", "setting": "[3]; 10 μg into the VTA, 15 min after injection", "result": "caused an increase of the extracellular dopamine in the Acb shell"},
      {"measurement": "time for the dopamine level to return to baseline", "setting": "[3]; 10 μg into the VTA, thereafter", "result": 60, "unit": "min"}
    ]}
  ]
}
